Reference: patent publication US20200339691A1, “PROTEINACEOUS MOLECULES AND USES THEREFOR” (priority 2018, published 2020)
Where a SMILES comes first, the peptide text is derived from it. The star is where a group is joined. Myristoyl = CCCCCCCCCCCCCC(=O)*

Columns and labels:
[1] = tested on: CD44^hiCD24^lo CSCs in MDA-MB-231 cells; assay: FACS analysis of CD44^hiCD24^lo cancer stem cells in MDA-MB-231 cells treated with P1 analogues; assay type: cell-based, human; details: 50 μM peptide, 48 hours; for CD44^hiCD24^lo CSCs (%) / COI, Live Single CD44^hiCD24^lo CSCs (Cell Count): n = 1; for Average Inhibition of CSCs (%) / CD44^hiCD24^lo CSCs (%) Repeat 1 / CD44^hiCD24^lo CSCs (%) Repeat 2 / CD44^hiCD24^lo CSCs (%) Repeat 3: n = 3
Method: Analogues of P1 (Table 6) were designed and synthesized in accordance with the procedure of Example 5. The ability of these analogues to inhibit cancer stem cells was determined using FACS analysis on MDA-MB-231 cells, which constitutively contain approximately 90% CD44^hiCD24^lo cancer stem cells, treated with the peptides.
(§1) Non-adherent cells were removed during the washing steps.

MDA-MB-231 cells = assay type: cell-based, human; details: for killing of total MDA-MB-231 cells: not only the CSCs
Source text: as §1

[2] = tested on: CD44^hiCD24^lo CSCs in MCF7 cells; assay: FACS analysis of CD44^hiCD24^lo CSCs in MCF7 cells; assay type: cell-based, human; details: 50 μM peptide, 48 hours
Method: (§2) P1 Analogues were synthesized in accordance with the procedure of Example 5. 4×10^4 MDA-MB-231 cells or 1×10^4 induced or non-induced MCF7 cells were seeded in a 12 well plate with 1 mL complete media overnight. Induced MCF7 cells were prepared by stimulating cells with PMA/TGF-β and incubating for 12 hours. Cells were treated with 50 μM test peptide (dissolved in water) for 48 hours. Cells were then washed twice with 1 mL PBS and harvested by trypsinisation. Non-adherent cells were removed during the washing steps. Adherent cells were collected, and were subsequently stained with anti-human CD44, CD24 and Hoechst 33342 antibodies on ice for 30 mins. FACS was performed on BD FACS LSRII to measure the percentage of CD44^hiCD24^lo CSCs by dividing CD44^hiCD24^lo events by total live cell counts (Hoechst negative population) (as described in Fillmore and Kuperwasser (2007) Breast Cancer Res, 9: 303). The percentage of viable cells was calculated by dividing total live cell events by total single cells as described previously (Siemann and Keng (1986), Cancer Res, 46: 3556-3559).

MCF7 cells = tested on: MCF7 cells
Method: as §2

induced MCF7 cells = assay: FACS CSC inhibition in induced MCF7 cells; assay type: cell-based, human; details: induced MCF7 cells (PMA/TGF-β), 50 μM peptide, 48 hours
Method: as §2

PD-L1 [3] = assay: Immunofluorescence (confocal) of PD-L1 in MDA-MB-231 cells, Example 6; assay type: cell-based, human; details: 50 μM, 72 hours
Method: (§3) Confocal laser scanning microscopy was employed to investigate the effect of P1, P2 and P3 (synthesized in accordance with Example 5) on the nuclear expression of PD-L1 and acetylated PD-L1 (PDL1-Ac) (FIG. 9).
(§4) 1×10^4 MDA-MB-231 cells were seeded onto coverslips in 12 well plates with DMEM media overnight. Cells were treated with 50 μM P1, P2, P3 or P4 or vehicle (water) for 72 hours. Treated cells were fixed with 3.7% formaldehyde, and then permeabilised by incubating with 1% Triton X-100 for 20 min. Cells were then probed with a rabbit anti-PD-L1 antibody (Santa Cruz Biotechnology) or rabbit anti-acetylated PD-L1 (generated as described above) and visualized with a donkey anti-rabbit AF 488. Cover slips were mounted on glass microscope slides with ProLong Diamond Antifade reagent (Life Technologies). Protein targets were localized using confocal laser scanning microscopy. Single 0.5 μm sections were obtained using a Leica DMI8 microscope using 100× oil immersion lens running LAX software. The final image was obtained by averaging four sequential images of the same section. Digital images were analyzed using ImageJ software as described above.

[4] = tested on: PD-L1 acetylated at lysine 263; assay: Immunofluorescence (confocal) of acetylated PD-L1 in MDA-MB-231 cells, Example 6; assay type: cell-based, human; details: 50 μM, 72 hours
Method: as §3, §4

EHTM2 = assay: Immunofluorescence of EHTM2 in MDA-MB-231 cells; assay type: cell-based, human; details: 50 μM, 72 hours
Method: (§5) Cells were treated with 50 μM P1, P2, P3 or P4 (synthesized in accordance with Example 5) or vehicle (water) for 72 hours. […] Confocal laser scanning microscopy was used to measure the […] and TCFI as described above. At least 20 individual cells were analyzed per sample.

DMNTI = assay: Immunofluorescence of DMNTI in MDA-MB-231 cells; assay type: cell-based, human; details: 50 μM, 72 hours
Method: as §5

SETDB1 = assay: Immunofluorescence of SETDB1 in MDA-MB-231 cells; assay type: cell-based, human; details: 50 μM, 72 hours
Method: as §5

p300 = target: T1, p300 (Homo sapiens, UniProt Q09472); assay: Immunofluorescence of p300 localization in MDA-MB-231 cells; assay type: cell-based; details: 50 μM
T1 construct: endogenous in cells; host or cells: MDA-MB-231
Method: (§6) The effect of P1, P2, P3 and P4 (synthesized in accordance with Example 5) on p300 localization was examined using confocal laser scanning microscopy. […] Cover slips were mounted on glass microscope slides with ProLong Diamond Antifade reagent (Life Technologies). Protein targets were localized by confocal laser scanning microscopy as described above. TNFI and PCC(r) were calculated using ImageJ software as previously described.

[5] = tested on: acetylated PD-L1 and p300; assay: Colocalization (PCC(r)) of acetylated PD-L1 and p300 in MDA-MB-231 cells; assay type: cell-based, human; details: 50 μm
Method: as §6

PD-L1 [6] = assay: PD-L1 in MDA-MB-231 mouse xenografts treated with abraxane or docetaxel; assay type: in vivo; details: 35 days, compared with untreated cells
Method: The expression of PD-L1 in mouse MDA-MB-231 xenografts treated for 35 days with abraxane (60 mg/kg) or docetaxel (10 mg/kg) was investigated using confocal laser scanning microscopy.
Five-week-old female nude mice were acquired and allowed to acclimatize for one week in the animal facility before experimentation. All experimental procedures were accessed and approved by The Australian National University Animal Experimental Ethics Committee (Ethics ID A2014/30). MDA-MB-231 human breast carcinoma cells were injected subcutaneously into the right mammary gland (2×10^6 cells in 1:1 PBS and BD Matrigel Matrix). Tumors were measured using external calipers and calculated using the modified ellipsoidal formula: […], where a=longest diameter and b=shortest diameter. Tumors were allowed to grow to around 50 mm^3 before commencing treatments (around 15 days). Abraxane (60 mg/kg) or Docetaxel (10 mg/kg) were administered by i.p. injection. Tumors were excised and collected in DMEM supplemented with 2.5% FCS. […] Digested tumors were spun and resuspended in DMEM, 2.5% FCS before being passed through a […] filter and PD-L1 nuclear localization was assessed using immunofluorescence microscopy as described supra.

[7] = MCF7 cells, 50 μM peptide, 48 hours
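Wherever COI, Live Single Cells (Cell Count) is given: live means Hoechst-negative events among single cells.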

T1 sequence (Q09472 whole entry): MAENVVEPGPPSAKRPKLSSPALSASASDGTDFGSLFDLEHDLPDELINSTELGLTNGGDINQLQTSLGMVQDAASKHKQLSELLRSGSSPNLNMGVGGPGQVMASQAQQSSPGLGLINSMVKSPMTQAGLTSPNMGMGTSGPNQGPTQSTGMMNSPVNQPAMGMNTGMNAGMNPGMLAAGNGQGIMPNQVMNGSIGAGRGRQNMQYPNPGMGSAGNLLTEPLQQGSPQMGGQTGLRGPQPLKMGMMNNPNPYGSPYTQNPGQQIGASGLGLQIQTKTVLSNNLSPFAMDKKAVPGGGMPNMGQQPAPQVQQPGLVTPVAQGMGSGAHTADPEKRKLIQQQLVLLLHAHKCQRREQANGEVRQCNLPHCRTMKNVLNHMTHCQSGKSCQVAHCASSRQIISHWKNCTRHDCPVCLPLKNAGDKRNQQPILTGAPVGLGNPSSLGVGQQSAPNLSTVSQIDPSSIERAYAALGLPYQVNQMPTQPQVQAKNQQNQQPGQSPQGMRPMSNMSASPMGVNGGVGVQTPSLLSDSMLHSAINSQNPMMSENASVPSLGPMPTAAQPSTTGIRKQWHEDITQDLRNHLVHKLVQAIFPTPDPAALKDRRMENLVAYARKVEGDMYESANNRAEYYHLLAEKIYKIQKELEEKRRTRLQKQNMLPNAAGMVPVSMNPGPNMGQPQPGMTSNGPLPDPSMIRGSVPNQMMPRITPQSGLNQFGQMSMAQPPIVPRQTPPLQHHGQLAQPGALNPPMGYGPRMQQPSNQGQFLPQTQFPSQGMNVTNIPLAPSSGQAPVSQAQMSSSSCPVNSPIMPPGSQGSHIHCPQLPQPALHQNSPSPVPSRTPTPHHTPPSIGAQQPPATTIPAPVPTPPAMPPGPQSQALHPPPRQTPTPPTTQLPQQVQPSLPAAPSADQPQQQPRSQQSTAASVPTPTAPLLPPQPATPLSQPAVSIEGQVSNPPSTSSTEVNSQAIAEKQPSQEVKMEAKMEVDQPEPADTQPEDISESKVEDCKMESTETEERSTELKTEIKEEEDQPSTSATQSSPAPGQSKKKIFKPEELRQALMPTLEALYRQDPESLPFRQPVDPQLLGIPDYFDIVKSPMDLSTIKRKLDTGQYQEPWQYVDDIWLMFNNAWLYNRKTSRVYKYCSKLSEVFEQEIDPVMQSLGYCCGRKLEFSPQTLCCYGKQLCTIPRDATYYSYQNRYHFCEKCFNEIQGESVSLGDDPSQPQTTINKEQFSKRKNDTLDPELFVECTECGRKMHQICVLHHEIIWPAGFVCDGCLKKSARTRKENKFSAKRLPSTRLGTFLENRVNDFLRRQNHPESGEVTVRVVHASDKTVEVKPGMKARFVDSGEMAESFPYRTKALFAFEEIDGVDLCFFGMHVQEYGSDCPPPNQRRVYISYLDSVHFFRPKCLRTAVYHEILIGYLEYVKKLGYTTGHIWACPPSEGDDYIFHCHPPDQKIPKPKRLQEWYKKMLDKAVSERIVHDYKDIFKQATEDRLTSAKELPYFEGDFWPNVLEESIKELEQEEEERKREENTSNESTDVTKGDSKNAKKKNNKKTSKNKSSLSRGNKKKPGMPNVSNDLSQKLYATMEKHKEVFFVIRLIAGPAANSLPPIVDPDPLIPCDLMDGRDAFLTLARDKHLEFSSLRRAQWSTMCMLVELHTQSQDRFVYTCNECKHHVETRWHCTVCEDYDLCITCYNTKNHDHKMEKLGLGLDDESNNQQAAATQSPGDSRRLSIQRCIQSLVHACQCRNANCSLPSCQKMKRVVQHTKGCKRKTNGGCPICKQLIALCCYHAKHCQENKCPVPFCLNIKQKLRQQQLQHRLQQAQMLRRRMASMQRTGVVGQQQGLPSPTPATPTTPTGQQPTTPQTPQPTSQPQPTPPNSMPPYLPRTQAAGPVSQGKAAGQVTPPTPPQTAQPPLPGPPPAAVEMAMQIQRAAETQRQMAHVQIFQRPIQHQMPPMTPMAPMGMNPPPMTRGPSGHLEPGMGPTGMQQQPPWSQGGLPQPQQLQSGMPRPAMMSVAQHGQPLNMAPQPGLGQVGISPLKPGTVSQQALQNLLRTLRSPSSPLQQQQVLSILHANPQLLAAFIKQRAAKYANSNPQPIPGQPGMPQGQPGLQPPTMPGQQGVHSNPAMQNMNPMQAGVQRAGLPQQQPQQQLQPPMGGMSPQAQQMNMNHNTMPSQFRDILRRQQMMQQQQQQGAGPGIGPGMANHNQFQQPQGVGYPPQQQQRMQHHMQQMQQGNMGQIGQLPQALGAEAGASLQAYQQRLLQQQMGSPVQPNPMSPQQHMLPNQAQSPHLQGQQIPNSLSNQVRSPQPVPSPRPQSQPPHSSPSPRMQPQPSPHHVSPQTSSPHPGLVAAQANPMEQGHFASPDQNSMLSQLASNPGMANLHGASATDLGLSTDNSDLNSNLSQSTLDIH

| Structure (SMILES) | Inhibition of CSCs (%) Repeat 1 [1] | Inhibition of CSCs (%) Repeat 2 [1] | Inhibition of CSCs (%) Repeat 3 [1] | CD44^hiCD24^lo CSCs (%) [1] | COI, Live Single CD44^hiCD24^lo CSCs (Cell Count) [1] | Average Inhibition of CSCs (%) [1] | CD44^hiCD24^lo CSCs (%) Repeat 1 [1] | CD44^hiCD24^lo CSCs (%) Repeat 2 [1] | CD44^hiCD24^lo CSCs (%) Repeat 3 [1] | COI (Cell Count) (MDA-MB-231 cells; 50 μM peptide, 48 hours, n = 1) | COI, Live Single Cells (Cell Count) (MDA-MB-231 cells; 50 μM peptide, 48 hours, n = 1) | COI, Single (Cell Count) (MDA-MB-231 cells; 50 μM peptide, 48 hours, n = 1) | Total Cell Count (MDA-MB-231 cells; 50 μM peptide, 48 hours, n = 1) | killing of total MDA-MB-231 cells (MDA-MB-231 cells) | CD44^hiCD24^lo CSC % [2] | COI/Single Cells/Live/CD44^hiCD24^lo CSCs Count [2] | COI Count (MCF7 cells; [7]) | COI/Single Cell Count (MCF7 cells; [7]) | COI/Single Cells/Live Count (MCF7 cells; [7]) | Total Count (MCF7 cells; [7]) | further results |
| --- | --- | --- | --- | --- | --- | --- | --- | --- | --- | --- | --- | --- | --- | --- | --- | --- | --- | --- | --- | --- | --- |
| CCCCCCCCCCCCCC(=O)N[C@@H](CC(C)C)C(=O)N[C@H](C(=O)N[C@@H](Cc1ccccc1)C(=O)N[C@H](C(=O)N[C@@H](Cc1ccccc1)C(=O)N[C@@H](CCCNC(=N)N)C(=O)N[C@@H](CC(C)C)C(=O)N[C@@H](CC(C)C)C(=O)N[C@@H](CCCCN)C(=O)NCC(=O)N[C@@H](CCCNC(=N)N)C(=O)N[C@@H](CCSC)C(=O)N[C@@H](CCSC)C(=O)N[C@@H](CC(=O)O)C(=O)N[C@H](C(=O)N[C@@H](CCCCN)C(=O)N[C@@H](CCCCN)C(N)=O)C(C)C)[C@@H](C)CC)[C@@H](C)O [Peptide 2853825, Myristoyl-LTFIFRLLKGRMMDVKK-NH2] (Myristoyl-LTFIFRLLKGRMMDVKK-NH2) | 100.00% | 100.00% | 100.00% | 0.00% | 0 | 100.00% | 0.00% | 0.00% | 0.00% | 18 | 0 | 15 | 1583 | killed the majority of the total MDA-MB-231 cells | 0.00% | 0 | 72 | 35 | 0 | 10000 | Viable Cells (%) (MDA-MB-231 cells; 50 μM peptide, 48 hours, n = 1): 0.00%; cytotoxicity to MCF7 cells (MCF7 cells): cytotoxic; % Viable Cells (MCF7 cells; [7]): 0.00%; CSC inhibition (%) (induced MCF7 cells): Cytotoxic |
| CCCCCCCCCCCCCC(=O)N[C@@H](CC(C)C)C(=O)N[C@H](C(=O)N[C@@H](Cc1ccccc1)C(=O)N[C@H](C(=O)N[C@@H](Cc1ccccc1)C(=O)N[C@@H](CCCNC(=N)N)C(=O)N[C@@H](CC(C)C)C(=O)N[C@@H](CCCNC(=N)N)C(=O)N[C@@H](CCCCN)C(=O)NCC(=O)N[C@@H](CCCNC(=N)N)C(=O)N[C@@H](CCSC)C(=O)N[C@@H](CCSC)C(=O)N[C@@H](CC(=O)O)C(=O)N[C@@H](CCCCN)C(=O)N[C@@H](CCCCN)C(=O)N[C@@H](CCCCN)C(N)=O)[C@@H](C)CC)[C@@H](C)O [Peptide 2853839, Myristoyl-LTFIFRLRKGRMMDKKK-NH2] (Myristoyl-LTFIFRLRKGRMMDKKK-NH2) | 100.00% | 100.00% | 100.00% | 0.00% | 0 | 100.00% | 0.00% | 0.00% | 0.00% | 12 | 2 | 10 | 619 | killed the majority of the total MDA-MB-231 cells | 1.14% | 25 | 3128 | 2294 | 2200 | 10000 | CSC inhibition (%) (induced MCF7 cells): 83.87% |
| CCCCCCCCCCCCCC(=O)N[C@@H](Cc1ccccc1)C(=O)N[C@@H](CCCNC(=N)N)C(=O)N[C@@H](CC(C)C)C(=O)N[C@@H](CCCNC(=N)N)C(=O)N[C@@H](CCCCN)C(=O)NCC(=O)N[C@@H](CCCNC(=N)N)C(=O)N[C@@H](CCSC)C(=O)N[C@@H](CCSC)C(=O)N[C@@H](CC(=O)O)C(=O)N[C@H](C(=O)N[C@@H](CCCCN)C(=O)N[C@@H](CCCCN)C(N)=O)C(C)C [Peptide P4, Myristoyl-FRLRKGRMMDVKK-NH2] (Myristoyl-FRLRKGRMMDVKK-NH2) | – | – | – | 87.66% | 3311 | – | – | – | – | 4910 | 3777 | 3903 | 7923 | – | – | – | – | – | – | – | localization of PD-L1 (PD-L1 [3]): no effect; localization of acetylated PD-L1 [4]: no effect; expression / localization of EHTM2 (EHTM2): did not have a significant effect; expression / nuclear localization of DMNTI (DMNTI): inhibited; expression / nuclear localization of SETDB1 (SETDB1): inhibited; p300 nuclear expression (p300): slightly decreased; colocalization of acetylated PD-L1 and p300 [5]: no effect |
| CC(=O)O[C@@]12CO[C@@H]1C[C@H](O)[C@@]1(C)C(=O)[C@H](O)C3=C(C)[C@@H](OC(=O)[C@H](O)[C@@H](NC(=O)OC(C)(C)C)c4ccccc4)C[C@@](O)([C@@H](OC(=O)c4ccccc4)[C@H]21)C3(C)C [docetaxel] | – | – | – | – | – | – | – | – | – | – | – | – | – | – | – | – | – | – | – | – | PD-L1 in the nucleus of surviving, resistant xenograft cells (PD-L1 [6]): higher levels of PD-L1 in the nucleus |
